Measurements from paper PMC10759609, “A novel PDPN antagonist peptide CY12-RP2 inhibits melanoma growth via Wnt/β-catenin and modulates the immune cells” (Journal of Experimental & Clinical Cancer Research : CR, 2024).
Where two headings read alike, the source gives them in different places. Peptide text beside a SMILES is read from it.

Columns and labels:
[1] = tested on: Wnt/β-catenin signaling pathway; test: Western blot, EMT and Wnt/β-catenin pathway, melanoma cells; format: cell-based; details: melanoma cells treated with peptide
Method: Melanoma cells were cultured in a 60 mm dish with a complete medium and various peptide concentrations (0 μM, 5 μM, 25 μM). Protein was extracted after cells were cultured or treated for 48 h using protein lysis buffer, separated using a 10% or 15% Bis–Tris PAGE gel (Epizyme Biomedical Technology, Shanghai, China), and transferred onto a PVDF membrane (Thermo Fisher Scientific) according to standard techniques. The Western blots were imaged using Bio-rad Chemidoc MP and quantified using ImageJ software (NIH).
Fig. S4: The inhibition of cells metastasis and invasion by CY12-RP2 can be […]
(A, B) The inhibition of CY12-RP2 on the migration capacity of melanoma cell lines was reversed by SKL2001 (A). Statistical analysis was performed to determine the migrated distance (B). The power field scale bar, 100 μm. (C, D) Effect of CY12-RP2 on the invasive ability of melanoma cell lines were reversed by SKL2001 (C). […]
(A) TUNEL analysis of apoptosis was conducted on orthotopic xenografts tumor sections using fluorescence staining. […] (B) Fluorescence staining of Ki67 was carried out on orthotopic xenograft tumor sections.
The power field scale bar, 100 μm. (C) Serum His-CY12-RP2 levels of the orthotopic xenografts mice treated by various dosage of CY12-RP2 were measured by His-ELISA kit. […]
kit. (E) Serum ALT, AST, TG, and γ-GT levels of the orthotopic xenografts model were measured by ELISA. […]

[2] = tested on: immune cells in spleen and lung; test: Flow cytometry of immune cells, spleen and lung, lung metastasis model; format: in vivo, BALB/c mice; details: lungs and spleens
Method: (§1) In this study, cell apoptosis was analyzed by flow cytometry using a PI/FITC-Annexin V Apoptosis Detection Kit (4A Biotech, Beijing, China). Briefly, melanoma cells were collected and washed with pre-chilled PBS, then resuspended with Annexin V staining buffer. Afterward, fluorescein isothiocyanate (FITC)-Annexin V and PI were stained for 5 min at RT, and then immediately detected using a Beckman flow cytometer. To investigate immune cell infiltration of the lung and spleen in the pulmonary metastasis mouse model, the surface and nuclear antigen staining were performed following the experimental procedure. Fluorescence-labeled mAb against CD3, CD25, CD49b, GranzymeB, CD11b, CD86, and CD206 were purchased from BioLegend (BioLegend, San Diego, CA), and CD4, CD8, and Foxp3 from Tonbo. Surface markers, including CD3, CD4, CD8, CD25, CD49b, GranzymeB, CD11b, CD86 and CD206, were firstly stained, then fixed, permeabilized, and stained for the intranuclear marker Foxp3, respectively. Finally, the samples were measured using flow cytometry.
For pulmonary metastasis assays, 6- to 8-week-old female BALB/c mice were administered with 5 × 10^5 B16F10-Luc cells via tail vein to establish an experimental pulmonary metastasis model of melanoma. CY12-RP2 was administered to the mice intravenously at high and low doses (25 mg/kg and 100 mg/kg) every two days, and the mice were sacrificed after 15 days of treatment. Pulmonary metastases were evaluated using bioluminescence imaging on the 2nd, 5th, 10th, 15th and 20th day after B16F10-Luc cells injection. Subsequently, the BALB/c mice were sacrificed, and the organs including the heart, liver, spleen, lung, and kidney were collected and imaged for evaluation of micrometastases. The xenografts and organs were kept in a 4% paraformaldehyde solution for subsequent histological assays.

A875 cells = format: cell-based
Method: (§2) Cell viability was determined using a CCK8 kit. Melanoma cells were plated into 96-well plates at a density of 5 × 10^3 cells/well. The cells were then treated with peptides at the determined concentrations for 24, 48, and 72 h. The CCK-8 (10 μL/ well) was pipetted into each well and the cells were incubated at 37 °C for 1~3 h. The viable cells were calculated by performing absorbance readings at 450 nm using a microplate reader (BioTek).

A375 cells [3] = format: cell-based
Method: as §2

A375 cells [4] = test: Annexin V/PI flow cytometry apoptosis, A375; format: cell-based; details: 0, 50, 100, 200 μM, 48 h
Method: as §1, with “Surface markers, including CD3, CD4, CD8, CD25, CD49b, GranzymeB, CD11b, CD86 and CD206, were firstly stained, then fixed, permeabilized, and stained for the intranuclear marker Foxp3, respectively.” left out
Fig. 3 Biopanning of PDPN antagonist peptides. […] B Immunofluorescence staining was performed to quantify the colocalization of CY12-RP2 and PDPN protein in melanoma cell lines (A375, A875). […] D Suppression efficiency of melanoma cells growth by CY12-RP2 was measured by CCK8 assay at various concentrations for 24, 48 or 72 h, respectively. […] G, H The 3D cellular spheres were treated with the set concentrations of CY12-RP2 for 5 days and cell morphology was assessed (G), relative spheroid diameter was measured (H). […]

Q: With `CC(C)C[C@H](NC(=O)[C@H](Cc1ccc(O)cc1)NC(=O)[C@@H](N)[C@@H](C)O)C(=O)N[C@@H](CS)C(=O)N[C@H](C(=O)N[C@@H](C)C(=O)N[C@@H](CS)C(=O)N[C@@H](CC(=O)O)C(=O)N[C@@H](Cc1ccc(O)cc1)C(=O)N[C@H](C(=O)N[C@@H](Cc1c[nH]cn1)C(=O)N[C@@H](Cc1c[nH]cn1)C(=O)O)[C@@H](C)O)[C@@H](C)O` [CY12-RP2] (H-TYLCTACDYTHH-OH; N-terminus and C-terminus assumed) as the compound, how does the Wnt/β-catenin pathway [1] read?
A: could inhibit the Wnt/β-catenin pathway

Q: And the “CD3 + CD4 + T cells ratio to total T cells” value [2]?
A: significantly increased

Q: And the “CD3 + CD8 + T cells ratio to total T cells” value [2]?
A: significantly increased

Q: What about the “CD4 + CD25 + Foxp3 + Treg cells” value [2] of the same compound?
A: significantly diminished

Q: And the “CD11b + CD86 + M1-like macrophages proportion” value [2]?
A: significantly increased

Q: And the “CD11b + CD206 + M2-like macrophages proportion” value [2]?
A: decreased

Q: What about the “CD49b + Granzyme B + NK cells proportion” value [2] of the same compound?
A: significantly increased

Q: What about the IC50 (A875 cells; 48 h) of the same compound?
A: 654 µM

Q: And the IC50 (A875 cells; 72 h)?
A: 117 µM

Q: And the “cell growth inhibition (in words)” value (A875 cells; PDPN underexpressed A875, CCK8, various concentrations)?
A: relatively diminished impact

Q: What about the IC50 (A375 cells [3]; 24 h) of the same compound?
A: 602 µM

Q: What about the IC50 (A375 cells [3]; 48 h) of the same compound?
A: 118 µM

Q: What about the IC50 (A375 cells [3]; 72 h) of the same compound?
A: 55.2 µM

Q: What about the “cell growth inhibition (in words)” value (A375 cells [3]; PDPN overexpressed A375, CCK8, various concentrations) of the same compound?
A: dramatically inhibited cell growth in a dose-dependent manner

Q: And the apoptosis rate (A375 cells [4])?
A: significantly up-regulated by CY12-RP2 in a dose-dependent manner
